Earlier results in US12533388B2, “Compositions and methods for prevention and treatment of immune deficiency and inflammation” (The United States GOVERNMENT As Represented By The …, priority 2020, dated 2026).

Experiments:
[1] = system: rat insulinoma cells (RINm5F); settings: in vitro
[2] = system: STZ-induced diabetic mice; settings: as compared to the STZ-induced diabetic control group without CHP treatment
Saccharomyces cerevisae = settings: by inhibiting chitinase

Q: Which results are given for `O=C1N[C@@H](Cc2cnc[nH]2)C(=O)N2CCC[C@@H]12` [CHP, Cyclo (His-Pro)]?
A: STZ-induced cytotoxicity and apoptosis [1]: prevented; Oral glucose tolerance test (OGTT) values [2]: significantly decreased; plasma glucose levels dropped [2]: 60%; growth of Saccharomyces cerevisae (Saccharomyces cerevisae): inhibit
